Laboratory results taken from patent US20260232666A1, “COMPOSITIONS AND METHODS FOR INHIBITION OF RAS” (TheRas, Inc., priority 2023, published 2026).

Key:
[1] = biological target: T1, GTP-loaded KRAS4b (amino acids 1-169) G12C/C118S protein (Homo sapiens, UniProt P01116, C118S/G12C); test: Covalent cysteine 12 modification by MALDI-TOF MS, GTP-loaded KRAS G12C; type: binding; details: 15 minutes reaction time point
T1 construct: KRAS4b (amino acids 1-169) G12C/C118S protein; made in house
In short: (§1)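 Percent modification comes from MALDI-TOF peak heights: the compound-adduct peak divided by the sum of the remaining-protein and adduct peaks. Reactions contained 1 μM protein and compound at a 1:2.5 ratio, in pH 7.3 HEPES buffer with NaCl and MgCl2, held 15 min at room temperature.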

[2] = biological target: T2, GDP-loaded KRAS4b (amino acids 1-169) G12C/C118S protein (Homo sapiens, UniProt P01116, C118S/G12C); test: Covalent cysteine 12 modification by MALDI-TOF MS, GDP-loaded KRAS G12C; type: binding; details: 15 minutes reaction time point
T2 construct: KRAS4b (amino acids 1-169) G12C/C118S protein; made in house
In short: as §1

[3] = biological target: T3, Avi-KRAS G12C (1-169) GppNHp/RAF1 RBD-3×FLAG (52-151) (Homo sapiens, UniProt P01116, G12C); test: Raf1 RBD-KRAS G12C-GppNHp disruption assay (protein:protein interaction HTRF); type: biochemical
T3 construct: Avi-KRAS G12C (1-169) GppNHp; Avi (N)
In short: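 HTRF measuring RAF1 RBD binding to GppNHp-loaded KRAS G12C (50 nM) in Tris pH 7.5, 100 mM NaCl, 5 mM MgCl2, 10% DMSO. Compound, KRAS, RBD and detection reagents each added sequentially with 1 h room-temperature incubations; 10-point titration; excitation 320 nm, emission 615 nm; activity as % of DMSO; IC50 derived.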

SMILES | GTP-KRAS G12C percent of modification [1] | GDP-KRAS G12C percent of modification [2] | IC50 [3]
C=CC(=O)N1CC[C@@H](N(CC)c2nc(OC[C@@]34CCCN3C[C@H](F)C4)nc3c(F)c(-c4ccc(F)c5sc(N)c(C#N)c45)ccc23)[C@@H]1CC [Compound 50] | D (percent of modification <10%) | A (percent of modification ≥70%) | 500 to 5000 nM
C=CC(=O)N1CC[C@@H](N(CC)c2nc(OC[C@@]34CCCN3C[C@H](F)C4)nc3c(F)c(-c4ccc(F)c5sc(N)c(C#N)c45)c(Cl)cc23)[C@@H]1C [Compound 77] | A (percent of modification ≥70%) | A (percent of modification ≥70%) | < 500 nM
C=CC(=O)N1CC[C@@H](N(C)c2nc(OC[C@@]34CCCN3C[C@H](F)C4)nc3c(F)c(-c4nc(N)cc(C)c4C(F)(F)F)c(Cl)cc23)[C@H]1C [Compound 78, 1-[(2R,3R)-3-[[7-[6-amino-4-methyl-3-(trifluoromethyl)-2-pyridyl]-6-chloro-8-fluoro-2-[[(2R,8S)-2-fluoro-1,2,3,5,6,7-hexahydropyrrolizin-8-yl]methoxy]quinazolin-4-yl]-methyl-amino]-2-methyl-pyrrolidin-1-yl]prop-2-en-1-one] | A (percent of modification ≥70%) | A (percent of modification ≥70%) | < 500 nM
C=CC(=O)N1CC[C@@H](N(C)c2nc(N3CC(N(C)C)C3)nc3c(F)c(-c4ccc(F)c5sc(N)c(C#N)c45)c(C(F)(F)F)cc23)[C@H]1C [Compound 80] | C (10%≤percent of modification <50%) | B (50≤percent of modification <70%) | < 500 nM
C=CC(=O)N1CC[C@@H](N(C)c2nc(OC[C@@H]3C[C@@H](F)CN3C)nc3c(F)c(-c4ccc(F)c5sc(N)c(C#N)c45)c(Cl)cc23)[C@@H]1C [Compound 82] | C (10%≤percent of modification <50%) | B (50≤percent of modification <70%) | < 500 nM
C=CC(=O)N1CC[C@@H](N(C)c2nc(OC[C@@H]3CCCN3C)nc3c(F)c(-c4ccc(F)c5sc(N)c(C#N)c45)c(Cl)cc23)[C@@H]1C [Compound 83] | B (50≤percent of modification <70%) | A (percent of modification ≥70%) | < 500 nM
C=CC(=O)N1CC[C@@H](N(CC)c2nc(OC[C@@]34CCCN3C[C@H](F)C4)nc3c(F)c(-c4ccc(F)c5sc(N)c(C#N)c45)c(C(F)(F)F)cc23)[C@@H]1C [Compound 86] | B (50≤percent of modification <70%) | A (percent of modification ≥70%) | < 500 nM
C=CC(=O)N1CC[C@@H](N(C)c2nc(OCC3(CN4CCOCC4)CC3)nc3c(F)c(-c4ccc(F)c5sc(N)c(C#N)c45)c(C(F)(F)F)cc23)[C@H]1C [Compound 87] | C (10%≤percent of modification <50%) | C (10%≤percent of modification <50%) | < 500 nM
C=CC(=O)N1CC[C@@H](N(C)c2nc(OC[C@@H]3CCCN3CC)nc3c(F)c(-c4ccc(F)c5sc(N)c(C#N)c45)c(C(F)(F)F)cc23)[C@H]1C [Compound 88] | B (50≤percent of modification <70%) | B (50≤percent of modification <70%) | < 500 nM
C=CC(=O)N1CC[C@@H](N(C)c2nc(OC[C@@]34CCCN3C[C@H](F)C4)nc3c(F)c(-c4ccc(F)c5oc(N)c(C#N)c45)c(C(F)(F)F)cc23)[C@H]1C [Compound 90] | C (10%≤percent of modification <50%) | B (50≤percent of modification <70%) | < 500 nM
C=CC(=O)N1CC[C@@H](N(C)c2nc(OC[C@@]34CCCN3C[C@H](F)C4)nc3c(F)c(-c4nc(N)cc(C)c4C(F)(F)F)c(C(F)(F)F)cc23)[C@@H]1C [Compound 91] | C (10%≤percent of modification <50%) | A (percent of modification ≥70%) | < 500 nM

Continued, values first:

GTP-KRAS G12C percent of modification [1] | GDP-KRAS G12C percent of modification [2] | IC50 [3] | SMILES
A (percent of modification ≥70%) | C (10%≤percent of modification <50%) | < 500 nM | C=CC(=O)N1CC[C@@H](N(CC)c2nc(OC[C@@H]3C[C@@H](F)CN3C)nc3c(F)c(-c4ccc(F)c5sc(N)c(C#N)c45)c(C(F)(F)F)cc23)[C@H]1C [Compound 52]
A (percent of modification ≥70%) | A (percent of modification ≥70%) | < 500 nM | C=CC(=O)N1CC[C@@H](N(C)c2nc(OC[C@@H]3C[C@@H](F)CN3C)nc3c(F)c(-c4ccc(F)c5sc(N)c(C#N)c45)c(C(F)(F)F)cc23)[C@H]1C [Compound 55]
C (10%≤percent of modification <50%) | A (percent of modification ≥70%) | < 500 nM | C=CC(=O)N1CC[C@@H](N(CC)c2nc(OC[C@@]34CCCN3C[C@H](F)C4)nc3cc(-c4ccc(F)c5sc(N)c(C#N)c45)c(C#N)cc23)[C@@H]1C [Compound 56]
C (10%≤percent of modification <50%) | A (percent of modification ≥70%) | < 500 nM | C=CC(=O)N1CC[C@@H](N(CC)c2nc(OC[C@@]34CCCN3C[C@H](F)C4)nc3c(F)c(-c4ccc(F)c5sc(N)c(C#N)c45)ccc23)[C@@H]1C [Compound 57]
A (percent of modification ≥70%) | A (percent of modification ≥70%) | < 500 nM | C=CC(=O)N1CC[C@@H](N(CC)c2nc(OC[C@@H]3CCCN3C)nc3c(F)c(-c4ccc(F)c5sc(N)c(C#N)c45)c(Cl)cc23)[C@H]1C [Compound 58]
B (50≤percent of modification <70%) | C (10%≤percent of modification <50%) | < 500 nM | C=CC(=O)N1CC[C@@H](N(CC)c2nc(OC[C@@H]3C[C@@H](F)CN3C)nc3c(F)c(-c4ccc(F)c5sc(N)c(C#N)c45)c(Cl)cc23)[C@H]1C [Compound 60]
B (50≤percent of modification <70%) | A (percent of modification ≥70%) | < 500 nM | C=CC(=O)N1CC[C@@H](N(C)c2nc(OC[C@@H]3C[C@@H](OC)CN3C)nc3c(F)c(-c4ccc(F)c5sc(N)c(C#N)c45)c(Cl)cc23)[C@H]1C [Compound 63, 4-(4-(((2R,3R)-1-acryloyl-2-methylpyrrolidin-3-yl)(methyl)amino)-6-chloro-8-fluoro-2-(((2S,4R)-4-methoxy-1-methylpyrrolidin-2-yl)methoxy)quinazolin-7-yl)-2-amino-7-fluorobenzo[b]thiophene-3-carbonitrile]
A (percent of modification ≥70%) | A (percent of modification ≥70%) | < 500 nM | C=CC(=O)N1CC[C@@H](N(C)c2nc(OC[C@@H]3CCCN3C)nc3c(F)c(-c4ccc(F)c5sc(N)c(C#N)c45)c(C(F)(F)F)cc23)[C@H]1C [Compound 67]
C (10%≤percent of modification <50%) | B (50≤percent of modification <70%) | < 500 nM | C=CC(=O)N1CC[C@@H](N(CC)c2nc(OC[C@@H]3C[C@@H](OC)CN3C)nc3c(F)c(-c4ccc(F)c5sc(N)c(C#N)c45)c(Cl)cc23)[C@H]1C [Compound 73]
A (percent of modification ≥70%) | A (percent of modification ≥70%) | < 500 nM | C=CC(=O)N1CC[C@@H](N(CC)c2nc(OC[C@@H]3CC4(CC4)CN3C)nc3c(F)c(-c4ccc(F)c5sc(N)c(C#N)c45)c(Cl)cc23)[C@H]1C [Compound 75]
B (50≤percent of modification <70%) | A (percent of modification ≥70%) | < 500 nM | C=CC(=O)N1CC[C@@H](N(CC)c2nc(OC[C@@]34CCCN3C[C@H](F)C4)nc3cc(-c4ccc(F)c5sc(N)c(C#N)c45)c(F)cc23)[C@H]1CC [Compound 76]
